Measured values: patent publication US9346798B2, “Dihydrobenzoxazine and tetrahydroquinoxaline sodium channel inhibitors” (AMGEN INC., priority 2012, dated 2016)

Key:
Assay type in all cases: cell-based
[1] = target: T1, Nav 1.7 (Homo sapiens (Human), UniProt Q15858); assay: Nav 1.7 in vitro PX assay, PatchXpress whole cell voltage clamp; details: HEK 293 cells stably transfected with human Nav1.7; for inhibition at 4.9 µM: HEK293, values marked *, read-out: Nav 1.7 PX percent inhibition at 4.9 μM; for IC50: partially inactivated state (20 to 50% inactivation)
Summary of the method: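 Partially inactivated channels (20–50% inactivation at holding potential) were probed on automated patch clamp in stably transfected HEK293 cells, stepping to −10 mV for 20 msec every 10 s (0.1 Hz).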

[2] = target: Nav 1.5 (Homo sapiens (Human), UniProt Q14524); assay: Nav 1.5 in vitro assay, IonWorks Quattro (IWQ) population patch-clamp; details: HEK 293 cells stably transfected with Nav 1.5; 26th pulse to -20 mV
[3] = target: T1, Nav 1.7; assay: Nav 1.7 in vitro assay, IonWorks Quattro (IWQ) population patch-clamp; details: HEK 293 cells stably transfected with Nav 1.7; 26th pulse to -20 mV

T1 sequence (Q15858 whole entry): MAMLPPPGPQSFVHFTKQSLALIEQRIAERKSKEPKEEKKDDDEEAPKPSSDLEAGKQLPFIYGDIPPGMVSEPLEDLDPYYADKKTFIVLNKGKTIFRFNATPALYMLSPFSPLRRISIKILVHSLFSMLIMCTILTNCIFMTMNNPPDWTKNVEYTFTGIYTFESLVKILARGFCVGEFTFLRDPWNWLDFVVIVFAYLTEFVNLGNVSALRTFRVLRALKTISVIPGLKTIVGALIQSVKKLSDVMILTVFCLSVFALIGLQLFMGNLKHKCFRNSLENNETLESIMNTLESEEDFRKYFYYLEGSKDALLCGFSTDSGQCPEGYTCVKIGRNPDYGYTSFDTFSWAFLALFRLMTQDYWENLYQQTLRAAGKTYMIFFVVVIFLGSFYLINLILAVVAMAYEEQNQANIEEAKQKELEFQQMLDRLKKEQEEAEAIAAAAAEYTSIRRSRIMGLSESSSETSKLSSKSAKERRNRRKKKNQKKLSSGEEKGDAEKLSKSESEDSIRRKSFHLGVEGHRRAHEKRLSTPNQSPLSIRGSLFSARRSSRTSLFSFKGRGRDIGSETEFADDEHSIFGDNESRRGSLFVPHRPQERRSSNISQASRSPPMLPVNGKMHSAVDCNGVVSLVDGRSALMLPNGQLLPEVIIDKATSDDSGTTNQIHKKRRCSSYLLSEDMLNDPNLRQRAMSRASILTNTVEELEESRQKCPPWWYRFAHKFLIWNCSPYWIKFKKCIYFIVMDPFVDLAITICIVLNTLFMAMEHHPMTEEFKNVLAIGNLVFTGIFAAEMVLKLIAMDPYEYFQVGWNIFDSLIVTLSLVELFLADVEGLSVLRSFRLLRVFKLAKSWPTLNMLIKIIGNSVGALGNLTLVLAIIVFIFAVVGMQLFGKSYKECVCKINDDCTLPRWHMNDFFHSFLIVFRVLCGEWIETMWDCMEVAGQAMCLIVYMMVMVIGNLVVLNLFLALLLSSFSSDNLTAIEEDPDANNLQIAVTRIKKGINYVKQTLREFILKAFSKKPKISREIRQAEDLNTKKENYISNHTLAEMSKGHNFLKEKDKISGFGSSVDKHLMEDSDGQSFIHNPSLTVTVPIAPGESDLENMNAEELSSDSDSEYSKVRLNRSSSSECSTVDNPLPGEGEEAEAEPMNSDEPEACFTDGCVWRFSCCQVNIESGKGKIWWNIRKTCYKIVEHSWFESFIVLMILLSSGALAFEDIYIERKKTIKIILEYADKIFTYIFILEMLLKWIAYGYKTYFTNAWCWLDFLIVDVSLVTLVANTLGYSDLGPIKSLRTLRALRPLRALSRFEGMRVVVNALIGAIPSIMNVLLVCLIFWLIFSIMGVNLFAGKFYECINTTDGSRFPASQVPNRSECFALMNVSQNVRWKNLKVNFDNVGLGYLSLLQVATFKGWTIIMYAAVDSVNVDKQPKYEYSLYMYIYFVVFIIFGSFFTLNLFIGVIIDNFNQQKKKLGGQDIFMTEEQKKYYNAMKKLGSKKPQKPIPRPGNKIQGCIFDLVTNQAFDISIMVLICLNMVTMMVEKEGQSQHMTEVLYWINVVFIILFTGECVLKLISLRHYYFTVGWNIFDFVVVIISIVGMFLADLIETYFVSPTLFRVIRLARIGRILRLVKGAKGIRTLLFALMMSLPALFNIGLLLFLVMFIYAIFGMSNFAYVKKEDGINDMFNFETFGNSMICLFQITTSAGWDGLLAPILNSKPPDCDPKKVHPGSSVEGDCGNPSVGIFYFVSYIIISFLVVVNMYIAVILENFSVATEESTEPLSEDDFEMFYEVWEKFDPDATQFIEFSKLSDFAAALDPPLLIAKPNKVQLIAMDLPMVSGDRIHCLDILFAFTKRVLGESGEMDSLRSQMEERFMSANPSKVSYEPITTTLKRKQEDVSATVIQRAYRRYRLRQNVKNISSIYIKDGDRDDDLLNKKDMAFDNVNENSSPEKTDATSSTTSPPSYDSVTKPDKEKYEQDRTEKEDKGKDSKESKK
Chain of Nav 1.5 (Q14524 whole entry): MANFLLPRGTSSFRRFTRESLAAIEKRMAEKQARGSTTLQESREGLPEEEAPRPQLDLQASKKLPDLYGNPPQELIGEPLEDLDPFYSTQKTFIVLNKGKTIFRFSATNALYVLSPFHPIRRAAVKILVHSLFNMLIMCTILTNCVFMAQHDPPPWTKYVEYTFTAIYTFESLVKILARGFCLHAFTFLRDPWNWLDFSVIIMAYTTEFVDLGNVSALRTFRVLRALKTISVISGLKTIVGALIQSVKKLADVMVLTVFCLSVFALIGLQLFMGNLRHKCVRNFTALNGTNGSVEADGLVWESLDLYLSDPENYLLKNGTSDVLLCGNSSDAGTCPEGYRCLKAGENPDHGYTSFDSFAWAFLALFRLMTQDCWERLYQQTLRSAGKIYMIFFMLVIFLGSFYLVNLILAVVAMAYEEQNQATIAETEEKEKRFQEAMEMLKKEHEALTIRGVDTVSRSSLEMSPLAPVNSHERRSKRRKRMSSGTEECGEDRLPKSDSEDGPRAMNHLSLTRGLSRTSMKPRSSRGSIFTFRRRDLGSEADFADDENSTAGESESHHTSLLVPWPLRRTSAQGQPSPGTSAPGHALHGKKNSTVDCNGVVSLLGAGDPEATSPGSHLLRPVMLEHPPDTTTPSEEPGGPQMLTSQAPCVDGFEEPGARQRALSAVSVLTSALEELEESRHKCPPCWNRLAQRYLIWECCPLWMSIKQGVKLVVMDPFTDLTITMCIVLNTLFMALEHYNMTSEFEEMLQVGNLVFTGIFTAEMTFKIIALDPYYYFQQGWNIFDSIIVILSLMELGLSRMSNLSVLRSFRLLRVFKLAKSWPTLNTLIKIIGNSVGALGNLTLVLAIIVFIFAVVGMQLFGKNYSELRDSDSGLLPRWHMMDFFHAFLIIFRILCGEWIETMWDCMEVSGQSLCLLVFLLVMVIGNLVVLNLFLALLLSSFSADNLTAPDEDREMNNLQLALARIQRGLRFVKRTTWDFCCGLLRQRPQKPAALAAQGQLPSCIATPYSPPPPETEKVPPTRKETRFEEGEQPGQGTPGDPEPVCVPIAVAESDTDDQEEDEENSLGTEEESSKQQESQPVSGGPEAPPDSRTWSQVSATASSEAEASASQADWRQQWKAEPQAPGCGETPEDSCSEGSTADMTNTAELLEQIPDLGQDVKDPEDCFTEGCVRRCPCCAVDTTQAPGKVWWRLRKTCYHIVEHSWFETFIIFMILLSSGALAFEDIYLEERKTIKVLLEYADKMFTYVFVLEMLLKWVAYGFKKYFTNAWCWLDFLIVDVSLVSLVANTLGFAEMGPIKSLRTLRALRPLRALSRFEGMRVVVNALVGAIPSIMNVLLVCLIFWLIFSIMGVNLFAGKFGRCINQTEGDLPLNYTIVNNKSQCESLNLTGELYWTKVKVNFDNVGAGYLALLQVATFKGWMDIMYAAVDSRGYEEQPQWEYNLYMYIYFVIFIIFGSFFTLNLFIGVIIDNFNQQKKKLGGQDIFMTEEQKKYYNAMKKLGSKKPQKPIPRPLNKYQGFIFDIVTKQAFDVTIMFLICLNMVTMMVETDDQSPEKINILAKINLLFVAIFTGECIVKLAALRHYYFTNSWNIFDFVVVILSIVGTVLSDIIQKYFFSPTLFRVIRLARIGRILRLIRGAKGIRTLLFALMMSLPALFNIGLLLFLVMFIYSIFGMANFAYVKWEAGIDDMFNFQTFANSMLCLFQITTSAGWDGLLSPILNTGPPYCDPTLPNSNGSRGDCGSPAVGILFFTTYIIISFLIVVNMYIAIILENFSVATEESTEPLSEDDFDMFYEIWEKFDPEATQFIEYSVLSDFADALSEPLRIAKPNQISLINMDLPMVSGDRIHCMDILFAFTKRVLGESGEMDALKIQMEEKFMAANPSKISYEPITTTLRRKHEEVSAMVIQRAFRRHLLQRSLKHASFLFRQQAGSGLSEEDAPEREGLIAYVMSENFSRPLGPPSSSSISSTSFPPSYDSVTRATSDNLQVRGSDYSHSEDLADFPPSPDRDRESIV

inhibition at 4.9 µM [1] | IC50 [3] | IC50 [1] | SMILES | IC50 [2]
20.2% | 1590 nM | – | Cc1cncc(C)c1N1CCOc2cc(S(=O)(=O)Nc3nccs3)ccc21 [Example 133, 4-(3,5-Dimethylpyridin-4-yl)-N-(thiazol-2-yl)-3,4-dihydro-2H-benzo[b][1,4]oxazine-7-sulfonamide] | > 10000 nM
– | 207 nM | 2200 nM | COc1ccc(N2CCOc3cc(S(=O)(=O)Nc4ncns4)ccc32)cc1 [Example 37, 4-(4-Methoxyphenyl)-N-(1,2,4-Thiadiazol-5-Yl)-3,4-Dihydro-2H-Benzo[B][1,4]Oxazine-7-Sulfonamide] | > 10000 nM
– | 2370 nM | 12600 nM | O=S(=O)(Nc1nccs1)c1ccc2c(c1)OCCN2c1ccc(Cl)c(F)c1 [Example 155, 4-(4-Chloro-3-Fluorophenyl)-N-(Thiazol-2-Yl)-3,4-Dihydro-2H-Benzo[B][1,4]Oxazine-7-Sulfonamide 2,2,2-Trifluoroacetate] | > 10000 nM
– | 69.5 nM | 912 nM | N#Cc1ccc(OC(F)(F)F)cc1N1CCOc2cc(S(=O)(=O)Nc3nccs3)ccc21 [Example 128, 4-(2-Cyano-5-(trifluoromethoxy)phenyl)-N-(thiazol-2-yl)-3,4-dihydro-2H-benzo[b][1,4]oxazine-7-sulfonamide] | 3690 nM
– | 385 nM | 3100 nM | COc1ccc(C#N)c(N2CCOc3cc(S(=O)(=O)Nc4nccs4)ccc32)c1 [Example 189, 4-(2-Cyano-5-Methoxyphenyl)-N-(Thiazol-2-Yl)-3,4-Dihydro-2H-Benzo[B][1,4]Oxazine-7-Sulfonamide] | 7590 nM
– | 69.5 nM | 415 nM | COc1ccc(OC)c(N2CCOc3cc(S(=O)(=O)Nc4nccs4)ccc32)c1 [Example 139, 4-(2,5-Dimethoxyphenyl)-N-(thiazol-2-yl)-3,4-dihydro-2H-benzo[b][1,4]oxazine-7-sulfonamide] | 7040 nM
24.4% | 1470 nM | – | O=S(=O)(Nc1ccccn1)c1ccc2c(c1)OCCN2c1ccc(C(F)(F)F)cc1Br [Example 60, 4-(2-Bromo-4-(Trifluoromethyl)Phenyl)-N-(Pyridin-2-Yl)-3,4-Dihydro-2H-Benzo[B][1,4]Oxazine-7-Sulfonamide] | > 10000 nM
22.6% | 2680 nM | – | Cc1ccc(C#N)c(N2CCOc3cc(S(=O)(=O)Nc4nccs4)ccc32)n1 [Example 135, 4-(3-Cyano-6-methylpyridin-2-yl)-N-(thiazol-2-yl)-3,4-dihydro-2H-benzo[b][1,4]oxazine-7-sulfonamide] | > 10000 nM
– | 2280 nM | 2600 nM | Cc1cc(N2CCOc3cc(S(=O)(=O)Nc4nccs4)ccc32)ccc1Cl [Example 156, 4-(4-Chloro-3-Methylphenyl)-N-(Thiazol-2-Yl)-3,4-Dihydro-2H-Benzo[B][1,4]Oxazine-7-Sulfonamide 2,2,2-Trifluoroacetate] | 3930 nM
– | 700 nM | 3750 nM | O=S(=O)(Nc1nccs1)c1ccc2c(c1)OCCN2c1ccccc1 [Example 165, 4-phenyl-N-(thiazol-2-yl)-3,4-dihydro-2H-benzo[b][1,4]oxazine-7-sulfonamide] | > 10000 nM
– | 27 nM | 144 nM | O=S(=O)(Nc1cscn1)c1ccc2c(c1)OCCN2c1ccc(C(F)(F)F)cc1C1=CCNCC1 [Example 63, 4-(2-(1,2,3,6-Tetrahydropyridin-4-Yl)-4-(Trifluoromethyl)Phenyl)-N-(Thiazol-4-Yl)-3,4-Dihydro-2H-Benzo[B][1,4]Oxazine-7-Sulfonamide] | 2670 nM
33.8% | 3430 nM | – | O=S(=O)(Nc1nccs1)c1ccc2c(c1)OCCN2Cc1c[nH]c2cccnc12 [Example 222, 4-((1H-Pyrrolo[3,2-B]Pyridin-3-Yl)Methyl)-N-(Thiazol-2-Yl)-3,4-Dihydro-2H-Benzo[B][1,4]Oxazine-7-Sulfonamide] | > 10000 nM
– | 643 nM | 3250 nM | Cc1ccc(C(C)C)c(N2CCOc3cc(S(=O)(=O)Nc4nccs4)ccc32)c1 [Example 168, 4-(2-Isopropyl-5-Methylphenyl)-N-(Thiazol-2-Yl)-3,4-Dihydro-2H-Benzo[B][1,4]Oxazine-7-Sulfonamide 2,2,2-Trifluoroacetate] | > 10000 nM
– | 249 nM | 2220 nM | Cc1c(F)cccc1N1CCOc2cc(S(=O)(=O)Nc3nccs3)ccc21 [Example 78, 4-(3-Fluoro-2-Methylphenyl)-N-(Thiazol-2-Yl)-3,4-Dihydro-2H-Benzo[B][1,4]Oxazine-7-Sulfonamide 2,2,2-Trifluoroacetate] | > 10000 nM
– | 112 nM | 750 nM | O=S(=O)(Nc1nccs1)c1ccc2c(c1)OCCN2c1ccccc1OC(F)F [Example 179, 4-(2-(Difluoromethoxy)Phenyl)-N-(Thiazol-2-Yl)-3,4-Dihydro-2H-Benzo[B][1,4]Oxazine-7-Sulfonamide 2,2,2-Trifluoroacetate] | 5640 nM
– | 416 nM | 4730 nM | Cc1cc(OC(F)F)cnc1N1CCOc2cc(S(=O)(=O)Nc3nccs3)ccc21 [Example 146, 4-(5-(Difluoromethoxy)-3-methylpyridin-2-yl)-N-(thiazol-2-yl)-3,4-dihydro-2H-benzo[b][1,4]oxazine-7-sulfonamide] | 5220 nM
– | 1070 nM | 4720 nM | O=S(=O)(Nc1nccs1)c1ccc2c(c1)OCCN2c1ccc(OC(F)(F)C(F)F)cc1 [Example 123, 4-(4-(1,1,2,2-Tetrafluoroethoxy)phenyl)-N-(thiazol-2-yl)-3,4-dihydro-2H-benzo[b][1,4]oxazine-7-sulfonamide] | 5810 nM
– | 860 nM | 11500 nM | CCOc1ccc(N2CCOc3cc(S(=O)(=O)Nc4nccs4)ccc32)cn1 [Example 138, 4-(6-Ethoxypyridin-3-yl)-N-(thiazol-2-yl)-3,4-dihydro-2H-benzo[b][1,4]oxazine-7-sulfonamide] | 3830 nM
– | 110 nM | 657 nM | COc1cc(Cl)ccc1N1C[C@H](C)Oc2cc(S(=O)(=O)Nc3nccs3)ccc21 (single isomer, unassigned) [Example 104] | > 10000 nM
– | 182 nM | 706 nM | Cc1cccc(N2CCOc3cc(S(=O)(=O)Nc4nccs4)ccc32)c1 [Example 75, N-(Thiazol-2-Yl)-4-(M-Tolyl)-3,4-Dihydro-2H-Benzo[B][1,4]Oxazine-7-Sulfonamide 2,2,2-Trifluoroacetate] | 7370 nM
– | 70.5 nM | 293 nM | C[C@@H]1CN(c2ccc(C(F)(F)F)cc2C#N)c2ccc(S(=O)(=O)Nc3nccs3)cc2O1 (single isomer, unassigned) [Example 95] | 6670 nM
– | 335 nM | 2620 nM | O=S(=O)(Nc1nccs1)c1ccc2c(c1)OCCN2c1cccc(OC(F)(F)F)c1 [Example 185, N-(Thiazol-2-Yl)-4-(3-(Trifluoromethoxy)Phenyl)-3,4-Dihydro-2H-Benzo[B][1,4]Oxazine-7-Sulfonamide] | 7620 nM
– | 326 nM | 3040 nM | O=S(=O)(Nc1nccs1)c1ccc2c(c1)OCCN2c1ccc(F)c(F)c1 [Example 84, 4-(3,4-Difluorophenyl)-N-(Thiazol-2-Yl)-3,4-Dihydro-2H-Benzo[B][1,4]Oxazine-7-Sulfonamide 2,2,2-Trifluoroacetate] | 3810 nM
– | 22.5 nM | 203 nM | O=S(=O)(Nc1nccs1)c1ccc2c(c1)OCCN2c1ccc(C(F)(F)F)cc1-c1ccncc1 [Example 53, 4-(2-(Pyridin-4-Yl)-4-(Trifluoromethyl)Phenyl)-N-(Thiazol-2-Yl)-3,4-Dihydro-2H-Benzo[B][1,4]Oxazine-7-Sulfonamide 2,2,2-Trifluoroacetate] | 554 nM
– | 891 nM | 2720 nM | O=S(=O)(Nc1nccs1)c1ccc2c(c1)OCCN2c1ccc(OCC(F)(F)F)cc1 [Example 113, N-(thiazol-2-yl)-4-(4-(2,2,2-trifluoroethoxy)phenyl)-3,4-dihydro-2H-benzo[b][1,4]oxazine-7-sulfonamide] | 3370 nM
– | 1390 nM | 8890 nM | CCC1CN(c2ccc(C(F)(F)F)cc2C#N)c2ccc(S(=O)(=O)Nc3nccs3)cc2O1 (single isomer, unassigned) [Example 102] | > 10000 nM
– | 11.5 nM | 67.6 nM | COc1cc(Cl)ccc1N1CCOc2cc(S(=O)(=O)Nc3nccs3)ccc21 [Example 186, 4-(4-Chloro-2-Methoxyphenyl)-N-(Thiazol-2-Yl)-3,4-Dihydro-2H-Benzo[B][1,4]Oxazine-7-Sulfonamide] | 7720 nM
– | 154 nM | 1930 nM | N#Cc1ccccc1N1CCOc2cc(S(=O)(=O)Nc3ncns3)ccc21 [Example 57, 4-(2-Cyanophenyl)-N-(1,2,4-Thiadiazol-5-Yl)-3,4-Dihydro-2H-Benzo[B][1,4]Oxazine-7-Sulfonamide] | 6700 nM

SMILES | inhibition at 4.9 µM [1] | IC50 [3] | IC50 [1] | IC50 [2]
O=S(=O)(Nc1nccs1)c1ccc2c(c1)OCCN2c1ccc(Cl)c(Cl)c1 [Example 74, 4-(3,4-Dichlorophenyl)-N-(Thiazol-2-Yl)-3,4-Dihydro-2H-Benzo[B][1,4]Oxazine-7-Sulfonamide 2,2,2-Trifluoroacetate] | – | 5240 nM | 4070 nM | 6080 nM
O=S(=O)(Nc1nccs1)c1ccc2c(c1)OCCN2c1ccc(C(F)(F)F)cc1C[C@@H](O)CO (single isomer, unassigned) [Example 209] | – | 12.5 nM | 165 nM | 497 nM
